From patent US12097199B2, “Administration of SUMO-activating enzyme inhibitor and anti-CD20 antibodies” (Takeda Pharmaceutical Company Limited, priority 2018, dated 2024)

What was measured:
[1] = system: PHTX-166L human patient-derived B-cell lymphoma primary xenograft; assay: Study 5: PHTX-166L primary xenograft model, in vivo tumor efficacy; parameters: species or system mice; settings: for TGI %: Day 11
Method: PHTX-166L Study 5: PHTX-166L is a human patient-derived B-cell lymphoma primary xenograft. Small tumor pieces measuring approximately 2 mm×2 mm were implanted subcutaneousy on the right flank via trocar injection. When the mean tumor volume reached approximately 160 mm^3, the animals were randomized into treatment groups and control groups (n=7/group). Tumor growth inhibition and body weight change were calculated on Day 11 of treatment. Tumor volumes below the humane end-point for size were continually monitored following the end of treatment (post-treatment period) until Day 146 post treatment initiation.
(§1) Tumors were measured twice weekly using vernier calipers. Tumor volumes were calculated using standard procedures V=W^2×L/2, where V=volume, W=width, and L=length for the tumor xenograft. […] Tumor size and body weight were measured twice a week for the duration of the study. Mice were euthanized when the average tumor volume of a treatment or control group reached approximately 1000 mm^3 or when an individual tumor exceeded the humane end-point for size.
(§2) These values were compared across treatment groups to assess whether the differences in the trends over time were statistically significant. To compare pairs of treatment groups, the following mixed-effects linear regression model was fit to the data using the maximum likelihood method: Yijk−Yi0k=Yi0k+treati+dayi+dayj^2+(treat*day)ij+(treat*day^2)ij+eijk (1) where Yijk is the log10 tumor value at the j^th time point of the k^th animal in the i^th treatment, Yi0k is the day 0 (baseline) log10 tumor value in the k^th animal in the i^th treatment, day, was the median-centered time point and (along with dayj^2) was treated as a continuous variable, and eijk is the residual error. A spatial power law covariance matrix was used to account for the repeated measurements on the same animal over time. Interaction terms as well as dayj^2 terms were removed if they were not statistically significant.
(§3) The predicted differences in the log tumor values (Yijk−Yi0k, which can be interpreted as log10 (fold change from day 0)) were taken from the above models to calculate mean AUC values for each treatment group. A dAUC value was then calculated as: […]
(§4) For synergy analyses, the observed differences in the log tumor values were used to calculate AUC values for each animal. […] The AUC for the control, or vehicle, group was calculated using the predicted values from the pairwise models described above. We defined a measure of synergy as follows:
(§5) The effect was classified into four different categories. It was considered synergistic if the synergy score was less than 0 and additive if the synergy score wasn't statistically different from 0.
(§6) In the PHTX-166L patient-derived primary B-cell lymphoma xenograft model, mice were inoculated, randomized on Day 0 (24 days post inoculation), and treatments began on Day 1 for all groups. […] One group served as the vehicle-treated group (Group 1) receiving IV treatment with the vehicle for I-263a (20% HPβCD) on a QW schedule.

[2] = system: PHTX-166L human patient-derived primary B-cell lymphoma xenograft; assay: Study 6: PHTX-166L primary xenograft model, in vivo tumor efficacy; parameters: species or system mice
Method: Small tumor pieces measuring approximately 2 mm×2 mm were implanted subcutaneousy on the right flank via trocar injection.
as §1, §2, §3, §4, §5
(§7) One group served as the vehicle-treated group (Group 1) receiving IV treatment with the vehicle for I-263a (20% HPβCD) on a QW schedule.

[3] = system: SUMO-activating enzyme and SUMOylation; assay: Inhibition of SAE and SUMOylation in cultured tumor cell lines; assay type: cell-based; settings: cultured mouse and human tumor cell lines
Excerpt: (§8) SAE inhibitors, as disclosed herein, are described, for example, in US 2016/0009744 and U.S. Pat. No. 9,695,154. They may be prepared by methods known to one skilled in the art and/or according to the methods described in US 2016/0009744 and U.S. Pat. No. 9,695,154, which is hereby incorporated by reference in its entirety. Central to the mechanism of action of useful SAE inhibitors, such as Compound I-263a, in combinations and methods of the present disclosure is production of type 1 IFNs and induction of an innate immune response with activation of both natural killer (NK) cells and macrophages.

[4] = molecular target: SUMO-activating enzyme (Homo sapiens, UniProt Q9UBT2); assay: Biochemical assays of SUMO-activating enzyme inhibition
Excerpt: as §8

[5] = system: OCI-Ly10 human diffuse large B-cell lymphoma xenograft; assay: Study 2: OCI-Ly10 xenograft model, in vivo tumor efficacy; parameters: species or system SCID mice; settings: for TGI %: Day 21
Method: OCI-Ly10 Study 2: OCI-Ly 10 is a human diffuse large B-cell lymphoma cell-line derived xenograft. 8 week old female SCID mice (Beijing HFK Bioscience Co., Ltd.) were inoculated subcutaneously in the right flank (cell suspension) with 4×10^6 OCI-Ly 10 cells. When the mean tumor volume reached approximately 200 mm^3, the animals were randomized into treatment and control groups (n=8/group). Tumor growth inhibition and body weight change were calculated on Day 21 of treatment.
Final doses received were 10 mg/kg or 5 mg/kg, respectively.
as §1, §2, §3, §4, §5
as §6, with “OCI-Ly 10 diffuse large” for “PHTX-166L patient-derived primary”, “(30” for “(24”

[6] = system: OCI-Ly10 human diffuse large B-cell lymphoma xenograft; assay: Study 1: OCI-Ly10 xenograft model, in vivo tumor efficacy; parameters: species or system SCID mice; settings: for TGI %: Day 21; for dAUC: unit assumed
Method: OCI-Ly 10 Study 1: OCI-Ly 10 is a human diffuse large B-cell lymphoma cell-line derived xenograft. 6 week old female SCID mice (Beijing HFK Bioscience Co., Ltd.) were inoculated subcutaneously in the right flank (cell suspension) with 4×10^6 OCI-Ly10 cells. When the mean tumor volume reached approximately 200 mm^3, the animals were randomized into treatment and control groups (n=7/group). Tumor growth inhibition and body weight change were calculated on Day 21 of treatment.
(§9) Final doses received were 25 mg/kg or 15 mg/kg, respectively.
as §1, §2, §3, §4, §5, §7

[7] = system: TMD8 human diffuse large B-cell lymphoma xenograft; assay: Study 4: TMD8 xenograft model, in vivo tumor efficacy; parameters: species or system SCID mice; settings: for TGI %: Day 18
Method: TMD8 Study 4: TMD8 is a human diffuse large B-cell lymphoma cell-line derived xenograft. 8 week old female SCID mice (Beijing HFK Bioscience Co., Ltd) were inoculated subcutaneously in the right flank (cell suspension with 4×10^6 cells). When the mean tumor volume reached approximately 190 mm^3, the animals were randomized into treatment groups and control groups (n=8/group). Tumor growth inhibition and body weight change were calculated on Day 18 of treatment. Tumor volumes below the humane end-point for size were continually monitored following the end of treatment (post-treatment period) for an additional week.
as §9, §1, §2, §3, §4, §5
as §6, with “TMD8 diffuse large” for “PHTX-166L patient-derived primary”, “(10” for “(24”

[8] = system: WSU-DLCL2 human diffuse large B-cell lymphoma xenograft; assay: Study 3: WSU-DLCL2 xenograft model, in vivo tumor efficacy; parameters: species or system SCID mice
Method: WSU-DLCL2 Study 3: WSU-DLCL2 is a human diffuse large B-cell lymphoma cell-line derived xenograft. 7 week old female SCID mice (Charles River Laboratories) were inoculated subcutaneously in the right flank (cell suspension with 4.0×10^6 cells). When the mean tumor volume reached approximately 200 mm^3, the animals were randomized into treatment groups and control groups (n=8/group). Tumor growth inhibition and body weight change were calculated on Day 21 of treatment. Tumor volumes below the humane end-point for size were continually monitored following the end of treatment (post-treatment period) for an additional week.
as §1, §2, §3, §4, §5
as §6, with “WSU-DLCL2 diffuse large” for “PHTX-166L patient-derived primary”, “(8” for “(24”

[9] = Group C: I-263a 12.5 mg/kg IV QW
[10] = Group B: I-263a 5.0 mg/kg IV QW
[11] = single-agent I-263a (25 and 15 mg/kg)

Chain of SUMO-activating enzyme (Q9UBT2 whole entry): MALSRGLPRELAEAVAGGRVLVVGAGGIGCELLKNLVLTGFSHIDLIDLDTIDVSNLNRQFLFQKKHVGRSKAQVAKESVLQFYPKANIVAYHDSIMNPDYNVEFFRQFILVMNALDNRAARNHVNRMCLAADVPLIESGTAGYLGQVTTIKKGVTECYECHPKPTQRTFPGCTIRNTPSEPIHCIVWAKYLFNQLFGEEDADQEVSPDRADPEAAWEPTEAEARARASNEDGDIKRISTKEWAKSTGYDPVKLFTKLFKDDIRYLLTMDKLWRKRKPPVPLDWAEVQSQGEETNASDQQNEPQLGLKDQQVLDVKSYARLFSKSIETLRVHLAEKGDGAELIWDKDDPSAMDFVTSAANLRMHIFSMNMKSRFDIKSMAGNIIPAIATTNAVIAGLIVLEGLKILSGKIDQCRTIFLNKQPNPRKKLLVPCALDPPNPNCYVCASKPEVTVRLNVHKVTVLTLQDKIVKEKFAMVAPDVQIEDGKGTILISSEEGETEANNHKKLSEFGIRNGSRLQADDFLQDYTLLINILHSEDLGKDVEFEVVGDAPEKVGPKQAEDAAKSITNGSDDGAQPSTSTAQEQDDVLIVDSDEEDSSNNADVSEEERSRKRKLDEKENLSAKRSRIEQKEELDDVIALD
Chain of SUMO-activating enzyme (Q9UBE0 whole entry partner): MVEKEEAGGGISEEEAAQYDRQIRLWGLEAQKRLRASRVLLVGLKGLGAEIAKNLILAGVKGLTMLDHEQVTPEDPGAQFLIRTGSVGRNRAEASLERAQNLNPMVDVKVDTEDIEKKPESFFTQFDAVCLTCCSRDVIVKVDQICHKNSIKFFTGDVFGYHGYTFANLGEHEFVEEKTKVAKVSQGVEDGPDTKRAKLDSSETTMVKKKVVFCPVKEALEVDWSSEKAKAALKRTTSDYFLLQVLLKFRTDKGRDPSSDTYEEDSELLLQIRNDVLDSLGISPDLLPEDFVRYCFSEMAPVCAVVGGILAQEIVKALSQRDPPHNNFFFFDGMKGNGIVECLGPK
Chain of SUMO-activating enzyme (P63165 1-97 partner limits assumed): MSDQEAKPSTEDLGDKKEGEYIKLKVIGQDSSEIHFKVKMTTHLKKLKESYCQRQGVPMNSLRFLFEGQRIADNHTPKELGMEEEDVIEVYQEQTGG

Cc1sc(C(=O)c2cncnc2N[C@@H]2C[C@H](COS(N)(=O)=O)[C@@H](O)C2)cc1[C@@H]1NCCc2ccc(Cl)cc21 [Compound I-263a, [(1R,2S,4R)-4-{[5-({4-[(1R)-7-chloro-1,2,3,4-tetrahydroisoquinolin-1-yl]-5-methyl-2-thienyl}carbonyl)pyrimidin-4-yl]amino}-2-hydroxycyclopentyl]methyl sulfamate]
Days to 1000 mm^3 MTV ([1]; Group B: I-263a 25 mg/kg IV QW): >18 days
dAUC ([1]; Group B: I-263a 25 mg/kg IV QW): 45.0
Tumor volume on Day 11 (±SEM) ([1]; Group B: I-263a 25 mg/kg IV QW (Days 1 and 8)): 540.2 ± 58.5 mm^3
TGI % ([1]; Group B: I-263a 25 mg/kg IV QW): 72%
Days to 1000 mm^3 MTV [1, 9]: 13.2 days
dAUC [1, 9]: 35.4
Tumor volume on Day 11 (±SEM) ([1]; Group C: I-263a 12.5 mg/kg IV QW (Days 1 and 8)): 758.2 ± 104.7 mm^3
TGI % [1, 9]: 60.6%
Days to 1000 mm^3 MTV [2, 10]: 9.1 days
dAUC [2, 10]: 34.3
Tumor volume on Day 9 (±SEM) ([2]; Group B: I-263a 5.0 mg/kg IV QW (Days 1 and 8)): 992.2 ± 115.2 mm^3
TGI % ([2]; Group B: I-263a 5.0 mg/kg IV QW, Day 9): 51.4%
Inhibition of SUMO-activating enzyme and SUMOylation in cells [3]: Selective and potent inhibition
Inhibition of SUMO-activating enzyme activity ([4]; mechanism-based inhibitor forming a covalent adduct with SUMO): potently inhibits enzyme activity
Selectivity for SUMO-activating enzyme ([4]; over ubiquitin-activating enzyme, Nedd8-activating enzyme, and autophagy related 7 enzyme): Strong selectivity
Days to 1000 mm^3 MTV ([5]; Group B: I-263a 10 mg/kg IV QW): 32.1 days
Tumor volume on Day 21 (±SEM) ([5]; Group B: I-263a 10 mg/kg IV QW): 706.9 ± 51.3 mm^3
dAUC ([5]; Group B: I-263a 10 mg/kg IV QW): 25.6
TGI % ([5]; Group B: I-263a 10 mg/kg IV QW): 41.3%
Days to 1000 mm^3 MTV ([5]; Group C: I-263a 5 mg/kg IV QW): 28.7 days
Tumor volume on Day 21 (±SEM) ([5]; Group C: I-263a 5 mg/kg IV QW): 759.3 ± 33.2 mm^3
dAUC ([5]; Group C: I-263a 5 mg/kg IV QW): 26.8
TGI % ([5]; Group C: I-263a 5 mg/kg IV QW): 37%
Day by which all mice were euthanized (group reached 1000 mm^3 or humane end-point for size) ([5]; single-agent I-263a (10 and 5 mg/kg)): ≤ 35 days
Days to 1000 mm^3 MTV ([6]; Group B: I-263a 25 mg/kg IV QW): 39 days
Tumor volume on Day 21 (±SEM) ([6]; Group B: I-263a 25 mg/kg IV QW): 409.7 ± 19.2 mm^3
TGI % ([6]; Group B: I-263a 25 mg/kg IV QW): 31.3%
dAUC ([6]; Group B: I-263a 25 mg/kg IV QW): 23.6%
Days to 1000 mm^3 MTV ([6]; Group C: I-263a 15 mg/kg IV QW): 37.6 days
Tumor volume on Day 21 (±SEM) ([6]; Group C: I-263a 15 mg/kg IV QW): 443.7 ± 12.3 mm^3
TGI % ([6]; Group C: I-263a 15 mg/kg IV QW): 25.6%
dAUC ([6]; Group C: I-263a 15 mg/kg IV QW): 21.4%
Day by which all mice were euthanized (group reached 1000 mm^3 or humane end-point for size) [6, 11]: ≤ 120 days
Days to 1000 mm^3 MTV ([7]; Group B: I-263a 25 mg/kg IV QW): 14.1 days
Tumor volume on Day 18 (±SEM) ([7]; Group B: I-263a 25 mg/kg IV QW): 1297.4 ± 120.2 mm^3
dAUC ([7]; Group B: I-263a 25 mg/kg IV QW): 13.6
TGI % ([7]; Group B: I-263a 25 mg/kg IV QW): 27.8%
Days to 1000 mm^3 MTV ([7]; Group C: I-263a 15 mg/kg IV QW): 12.8 days
Tumor volume on Day 18 (±SEM) ([7]; Group C: I-263a 15 mg/kg IV QW): 1604.1 ± 144.7 mm^3
dAUC ([7]; Group C: I-263a 15 mg/kg IV QW): 10.1
TGI % ([7]; Group C: I-263a 15 mg/kg IV QW): 10.7%
Day by which all mice were euthanized (group reached 1000 mm^3 or humane end-point for size) [7, 11]: ≤ 120 days
Days to 1000 mm^3 MTV ([8]; Group B: I-263a 5 mg/kg IV QW): 17.2 days
Tumor volume on Day 21 (±SEM) ([8]; Group B: I-263a 5 mg/kg IV QW): 1340.3 ± 188.1 mm^3
dAUC ([8]; Group B: I-263a 5 mg/kg IV QW): 28.1
TGI % ([8]; Group B: I-263a 5 mg/kg IV QW, Day 21): 37.6%
Day by which all mice were euthanized (group reached 1000 mm^3 or humane end-point for size) ([8]; single-agent I-263a 5 mg/kg): ≤ 24 days
